Reference: US9718760B2, “Plasminogen activator inhibitor-1 inhibitors and methods of use thereof” (THE REGENTS OF THE UNIVERSITY OF MICHIGAN, priority 2012, dated 2017)
pIC50: −log10 of the molar value.

Assays:
Assay type in all cases: biochemical
Conditions in all cases: physiologic buffer
[1] = molecular target: T1, recombinant active human PAI-1 (Homo sapiens (Human), UniProt P05121); assay: Fluorometric PAI-1/tPA IC50 plate assay at pH 7.8
Procedure: (§1) Additional fluorometric plate assays were carried out, as set out below, to determine the IC50 of various synthesized compounds as PAI-1 inhibitors.
PAI-1 inhibitor compounds were dissolved in DMSO to a final concentration of (10-50 mM), depending upon solubility. […] Tissue type PA activity in each reaction mixture was determined by adding Phe-Gly-Arg-AMC fluorogenic substrate (100 μL of 100 μM) (Centerchem). The rate of AMC release by tPA was measured at an excitation wavelength of 370 nm and an emission wavelength of 440 nm. Controls included PAI-1 and tPA in the absence of compound and tPA alone. Percent PAI-1 inhibition was calculated using the following formula: [(tPA alone-tPA/PAI-1+ compound)/(tPA alone-PAI-1/tPA)]*100%. The IC50 is calculated using Graphit (IC50 0-100%).

[2] = molecular target: anti-thrombin III (ATIII) (Homo sapiens (Human), UniProt P01008); assay: Fluorometric ATIII/αIIa IC50 plate assay at pH 7.8 (specificity control)
Chain of anti-thrombin III (ATIII) (P01008 33-464 limits assumed, species assumed): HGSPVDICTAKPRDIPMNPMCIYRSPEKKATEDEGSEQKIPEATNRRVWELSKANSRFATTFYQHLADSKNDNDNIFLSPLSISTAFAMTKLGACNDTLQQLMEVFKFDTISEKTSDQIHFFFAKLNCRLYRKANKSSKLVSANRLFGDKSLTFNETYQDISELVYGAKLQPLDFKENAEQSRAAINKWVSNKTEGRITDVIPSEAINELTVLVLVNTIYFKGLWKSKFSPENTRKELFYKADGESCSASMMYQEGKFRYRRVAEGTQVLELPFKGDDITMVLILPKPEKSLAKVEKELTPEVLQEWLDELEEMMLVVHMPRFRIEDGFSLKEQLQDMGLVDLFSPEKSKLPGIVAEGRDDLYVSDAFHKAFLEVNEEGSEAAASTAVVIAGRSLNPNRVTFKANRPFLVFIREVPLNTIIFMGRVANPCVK
Procedure: as §1
Alpha-thrombin is an active enzyme, related to uPA or tPA. Alpha-thrombin is inhibited by the serpin ATIII, which is closely related to PAI-1. This assay was used therefore as a control in testing for specificity of the PAI-1 inhibitor compounds. Thus, any compound that is specific for inhibiting PAI-1 should not inhibit ATIII.
PAI-1 inhibitor compounds were dissolved in DMSO to a final concentration of (10-50 mM), depending upon solubility. […] 100 μL of 100 μM fluorogenic, tripeptide aminomethylcoumarin benzoyl Phe-Val-Arg-AMC substrate was then added and residual αIIa activity was determined based upon cleavage of this substrate. The rate of AMC release by αIIa was measured at an excitation wavelength of 370 nm and an emission wavelength of 440 nm. Controls included PAI-1 and αIIa in the absence of compound and αIIa alone. Percent PAI-1 inhibition is calculated using the following formula: [(αIIa alone-αIIa/PAI-1+ compound)/(αIIa alone-PAI-1/αIIa)]*100%. The IC50 is calculated using Graphit (IC50 0-100%).

[3] = molecular target: T1, recombinant active human PAI-1; assay: Fluorometric PAI-1/uPA IC50 plate assay at pH 7.8
Procedure: To determine the efficacy of various synthesized compounds as PAI-1 inhibitors at pH 7.8, additional fluorometric plate assays were carried out to measure the half maximal inhibitory concentration (IC50) of these compounds on recombinant active human PAI-1 in vitro.
PAI-1 inhibitor compounds were dissolved in DMSO to a final concentration of (10-50 mM), depending upon solubility. […] Fluorescence, as a measure of the rate of AMC release by uPA, was read at the following wavelengths; excitation 370 nm, emission 440 nm. Controls included PAI-1 and uPA in the absence of compound and uPA alone. Percent PAI-1 inhibition was calculated using the following formula: [(uPA alone-uPA/PAI-1+ compound)/(uPA alone-PAI-1/uPA)]*100%. The IC50 was calculated using Graphit (IC50 0-100%).

T1 sequence (P05121 24-402): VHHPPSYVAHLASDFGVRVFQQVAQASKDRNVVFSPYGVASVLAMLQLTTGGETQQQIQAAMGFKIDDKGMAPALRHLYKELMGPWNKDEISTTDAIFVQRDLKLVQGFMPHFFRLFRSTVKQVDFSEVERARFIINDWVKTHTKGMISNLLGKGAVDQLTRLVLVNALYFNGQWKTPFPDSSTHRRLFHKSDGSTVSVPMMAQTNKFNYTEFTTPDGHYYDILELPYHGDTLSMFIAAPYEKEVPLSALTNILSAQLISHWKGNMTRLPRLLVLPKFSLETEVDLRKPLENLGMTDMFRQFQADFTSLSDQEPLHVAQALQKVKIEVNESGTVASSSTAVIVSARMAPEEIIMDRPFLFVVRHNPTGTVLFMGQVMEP

SMILES | pIC50 [1] | pIC50 [2] | pIC50 [3]
CCCCCCCCNC(=O)c1cc(O)c(O)c(O)c1 [C161] | 5.66 | 2.78 | 5.43
CCCCCCCCCCN(S(=O)(=O)c1ccc(O)c(O)c1)S(=O)(=O)c1ccc(O)c(O)c1 [C157] | 6.01 | 4.35 | 6.60
O=S(=O)(c1ccc(O)c(O)c1)N(CCc1ccccn1)S(=O)(=O)c1ccc(O)c(O)c1 [C162] | 5.12 | – | 5.41
CCCCCCCCN(S(=O)(=O)c1ccc(O)c(O)c1)S(=O)(=O)c1cc(F)c(O)c(F)c1 [C152] | 5.77 | 4.06 | 5.80
CCCCCCCCCCCCN(S(=O)(=O)c1ccc(O)c(O)c1)S(=O)(=O)c1ccc(O)c(O)c1 [C158] | 5.84 | 3.26 | 5.59
CCCCCCCCN(S(=O)(=O)c1cc(F)c(O)c(F)c1)S(=O)(=O)c1cc(F)c(O)c(F)c1 [C155] | 4.46 | 2.63 | 4.52
O=S(=O)(c1ccc(O)c(O)c1)N(c1ccccc1)S(=O)(=O)c1ccc(O)c(O)c1 [C153] | 5.99 | – | 6.15
O=S(=O)(c1ccc(O)c(O)c1)N(c1ccc(-c2ccccc2)cc1)S(=O)(=O)c1ccc(O)c(O)c1 [C165] | 6.29 | – | 6.46
O=S(=O)(NCc1ccccc1)c1ccc(O)c(O)c1 [C160] | 4.24 | 2.63 | 4.41
O=S(=O)(c1ccc(O)c(O)c1)N(c1cccc(C(F)(F)F)c1)S(=O)(=O)c1ccc(O)c(O)c1 [C163] | 6.21 | – | 6.54
CC(C)(C)OC(=O)NCCCOC(=O)c1cc(O)c(O)c(O)c1 [C156] | 3.24 | – | 3.72
